Values of other authors, collected in article PMC9963398, “Discovery of New Quinolone-Based Diarylamides as Potent B-RAF^V600E/C-RAF Kinase Inhibitors Endowed with Promising In Vitro Anticancer Activity” (International Journal of Molecular Sciences, 2023).

How the values were obtained:
[1] = system: SK-OV-3; parameters: method as in PMID 32745753; conditions: SK-OV-3, Ovarian cancer; cited from earlier work
[2] = system: SR; parameters: method as in PMID 32745753; conditions: Leukemia; cited from earlier work
[3] = system: BT-549; parameters: method as in PMID 32745753; conditions: BT-549, Breast cancer; cited from earlier work
[4] = system: SF-295; parameters: method as in PMID 32745753; conditions: SF-295, CNS cancer; cited from earlier work
[5] = system: NCI-H322M; parameters: method as in PMID 32745753; conditions: NSCL cancer; cited from earlier work
[6] = system: SW-620; parameters: method as in PMID 32745753; conditions: SW-620, Colon cancer; cited from earlier work
[7] = system: SK-MEL-5; parameters: method as in PMID 32745753; conditions: SK-MEL-5, Melanoma; cited from earlier work
[8] = system: U251; parameters: method as in PMID 32745753; conditions: U251, CNS cancer; cited from earlier work
[9] = system: SF-539; parameters: method as in PMID 32745753; conditions: SF-539, CNS cancer; cited from earlier work
[10] = system: ACHN; parameters: method as in PMID 32745753; conditions: Renal cancer; cited from earlier work
[11] = system: CCRF-CEM; parameters: method as in PMID 32745753; conditions: Leukemia; cited from earlier work
[12] = system: HOP-92; parameters: method as in PMID 32745753; conditions: HOP-92, NSCL cancer; cited from earlier work
[13] = system: RXF 393; parameters: method as in PMID 32745753; conditions: RXF 393, Renal cancer; cited from earlier work
[14] = system: K-562; parameters: method as in PMID 32745753; conditions: K-562, Leukemia; cited from earlier work
[15] = system: NCI-H226; parameters: method as in PMID 32745753; conditions: NCI-H226, NSCL cancer; cited from earlier work
[16] = system: OVCAR-8; parameters: method as in PMID 32745753; conditions: OVCAR-8, Ovarian cancer; cited from earlier work
[17] = system: HT29; parameters: method as in PMID 32745753; conditions: HT29, Colon cancer; cited from earlier work
[18] = system: MOLT-4; parameters: method as in PMID 32745753; conditions: MOLT-4, Leukemia; cited from earlier work
[19] = system: UACC-257; parameters: method as in PMID 32745753; conditions: UACC-257, Melanoma; cited from earlier work
[20] = system: A549/ATCC; parameters: method as in PMID 32745753; conditions: NSCL cancer; cited from earlier work
[21] = system: PC-3; conditions: PC-3, Prostate cancer; cited from earlier work
[22] = system: NCI-H460; parameters: method as in PMID 32745753; conditions: NCI-H460, NSCL cancer; cited from earlier work
[23] = system: OVCAR-3; parameters: method as in PMID 32745753; conditions: OVCAR-3, Ovarian cancer; cited from earlier work
[24] = system: MDA-MB-231/ATCC; conditions: Breast cancer; cited from earlier work
[25] = system: T-47D; parameters: method as in PMID 32745753; conditions: Breast cancer; cited from earlier work
[26] = system: DU-145; parameters: method as in PMID 32745753; conditions: DU-145, Prostate cancer; cited from earlier work
[27] = system: EKVX; parameters: method as in PMID 32745753; conditions: NSCL cancer; cited from earlier work
[28] = system: HCT-116; parameters: method as in PMID 32745753; conditions: HCT-116, Colon cancer; cited from earlier work
[29] = system: MDA-MB-468; conditions: MDA-MB-468, Breast cancer; cited from earlier work
[30] = system: OVCAR-4; parameters: method as in PMID 32745753; conditions: OVCAR-4, Ovarian cancer; cited from earlier work
[31] = system: SN12C; parameters: method as in PMID 32745753; conditions: Renal cancer; cited from earlier work
[32] = system: TK-10; parameters: method as in PMID 32745753; conditions: TK-10, Renal cancer; cited from earlier work
[33] = system: HCC-2998; parameters: method as in PMID 32745753; conditions: HCC-2998, Colon cancer; cited from earlier work
[34] = system: HS 578T; parameters: method as in PMID 32745753; conditions: Breast cancer; cited from earlier work
[35] = system: SNB-19; parameters: method as in PMID 32745753; conditions: SNB-19, CNS cancer; cited from earlier work
[36] = system: LOX IMVI; parameters: method as in PMID 32745753; conditions: Melanoma; cited from earlier work
[37] = system: UACC-62; parameters: method as in PMID 32745753; conditions: UACC-62, Melanoma; cited from earlier work

SMILES: CNC(=O)c1cc(Oc2ccc(NC(=O)Nc3ccc(Cl)c(C(F)(F)F)c3)cc2)ccn1 [Sorafenib]
- GI50 [1]: 2.3 µM
- GI50 [2]: 3.1 µM
- GI50 [3]: 3.3 µM
- GI50 [4]: 1.6 µM
- GI50 [5]: 2.8 µM
- GI50 [6]: 2.8 µM
- GI50 [7]: 1.5 µM
- GI50 [8]: 2.1 µM
- GI50 [9]: 1.6 µM
- GI50 [10]: 2.8 µM
- GI50 [11]: 2.2 µM
- GI50 [12]: 1.6 µM
- GI50 [13]: 3.4 µM
- GI50 [14]: 2.8 µM
- GI50 [15]: 1.9 µM
- GI50 [16]: 3 µM
- GI50 [17]: 2.2 µM
- GI50 [18]: 2.9 µM
- GI50 [19]: 2.2 µM
- GI50 [20]: 2.9 µM
- GI50 [21]: 2 µM
- GI50 [22]: 2.3 µM
- GI50 [23]: 2.9 µM
- GI50 [24]: 1.3 µM
- GI50 [25]: 1.8 µM
- GI50 [26]: 3.3 µM
- GI50 [27]: 2.5 µM
- GI50 [28]: 1.7 µM
- GI50 [29]: 2 µM
- GI50 [30]: 3.5 µM
- GI50 [31]: 2.4 µM
- GI50 [32]: 4.4 µM
- GI50 [33]: 3 µM
- GI50 [34]: 2.6 µM
- GI50 [35]: 3.4 µM
- GI50 [36]: 1.6 µM
- GI50 [37]: 1.7 µM
